Laboratory results reported in patent US20200032249A1, “LABELING, ISOLATION, & ANALYSIS OF RNA FROM RARE CELL POPULATIONS” (priority 2017, published 2020).

System: MDA231 cells expressing CD/UPRT in mouse lungs
Assay: signal-to-noise ratio of Flura-tagging and TU-tagging in vivo, lung colonization xenograft, RT-PCR
Conditions: 250 mg/kg, 12 h post injection
Experimental: FIG. 3 a-g. Flura-tagging of mRNA in vivo. FIG. 3a—Schematic diagram of lung colonization xenograft assay used for evaluation of Flura-tagging/Flura-seq. Athymic mice were injected through the tail vein with 50,000 MDA231 cells expressing CD/UPRT and GFP-luciferase. Upon the development of detectable bioluminescent lung metastases (4 weeks), mice were treated with doxycycline to induce CD/UPRT expression and injected with 5-FC. Lungs were harvested, and Flura-tagged mRNAs were immunopurified. FIG. 3b—Comparison of signal-to-noise ratio of Flura-tagging and TU-tagging in vivo. Mice were injected with either 5-FC or TU, the Flura-tagged or TU-tagged mRNAs were purified 12 h post injection, and the relative fold enrichment of representative human housekeeping genes relative to representative murine housekeeping genes (mHPRT1, mLDH1, mPGK1 and mGAPDH), normalized to their corresponding unpurified inputs, were measured by RT-PCR (n=5, ±S.E.). FIG. 3c—Quantification of the number of human cells in the mouse lungs used for Flura-tagging. Half of the mouse lungs used for Flura-tagging in FIG. 3b was dissociated into single cells, and the number of RFP+ cells was quantified using flow cytometry. The total number of MDA231 cells per lung was estimated based on an assumption of 1.5×10^8 cells per mouse lung (20) (n=5). […] RNA reads were aligned to a hybrid genome containing the human and mouse genomes. […]

Nc1nc(=O)[nH]cc1F [5-FC, 5-fluorocytosine]
enrichment of human mRNAs compared to mouse mRNAs: over 1000 fold
